Measurements reported in patent EP1066315B1 (University of Dundee, priority 1998, dated 2008).
Residues, ends and D or L forms follow the SMILES beside them. *: point of attachment. Fmoc = O=C(OCC1c2ccccc2-c2ccccc21)*; Cbz = O=C(OCc1ccccc1)*; CHN2 = [N-]=[N+]=C*

Tests used:
[1] = tested on: purified AEP (legumain from pig kidney); assay: Digestion of TTCF with purified AEP in the presence of tetrapeptides; assay type: biochemical; conditions: 0.2 mg/ml peptide; Fig 3a
Procedure: The invention will now be described by reference to the following Examples and Figures wherein • Figure 1: Processing of TTCF by a leupeptin-insensitive cysteine endopeptidase activity. (a) TTCF was digested in vitro in the presence of disrupted lysosomes (1-2 µg) in the presence or absence of iodoacetamide (1 mM), leupeptin, E64 or pepstatin (each at 0.1 mg/ml). Digestions were in 0.1 M NH4 acetate at pH 4.5 or Na2HPO4, pH 6.0 or 7.0. After 4 hours at 37°C, the reactions were separated by Tris-tricine SDS-PAGE and stained with Coomassie Blue. (b) Cleavage sites: TTCF digestion products were separated by SDS PAGE and electrophoretically transferred to nitrocellulose membrane. Individual fragments numbered 1-6 were subjected to 5 cycles of Edman degradation. N-terminal sequence obtained is shown in bold following upstream residues from TTCF (tetanus toxin numbering). The N-terminal sequence of His-tagged TTCF was obtained for fragments 1 and 3. (c) Residues Asn 1184 and Glu 1184 in TTCF were mutated to alanine (see Methods) and digestions performed as before. The mutation abolishes cleavage at the mutated site but not at the first site (doublet at 47 kD). In this experiment cleavage of the third site was minimal. • Figure 2: TTCF is processed by an asparaginyl endopeptidase. (a) Chromatography of the TTCF processing activity on Mono-S resin. Fractions eluted by NaCl gradient were incubated with the substrates Z-Ala-Ala-Asn-NHMec or Z-Phe-Arg-NHMec in the presence or absence of E64 (trans-epoxysuccinyl-L-leucylamido-(4-guanidino)butane). […] (b) Fractions as above were incubated with 10 µg TTCF in the presence or absence of E64 for 4 hours at 37°C prior to SDS-PAGE analysis. (c) Each fraction was analysed by SDS-PAGE and Western blotting. Electrophoretically transferred material was probed with an affinity purified antiserum raised against the peptide KGIGSGKVLKSGPQC from human legumain^1. • Figure 3: Peptide inhibitors of AEP block asparaginyl endopeptidase activity and TTCF processing in vitro and in vivo. […] Release of 7-amino-4-methyl coumarin was measured after 10, 20 or 30 minutes. […] At different times the cells were washed, fixed in 0.05 % glutaraldehyde and antigen presentation measured using proliferation of different autologous TTCF-specific T cell clones. c, AEP pre-processing of TTCF speeds antigen presentation. […] Presentation was measured after 60 minutes of antigen pulsing using EBV B cells.
We decided to test the possibility that high concentrations of asparagine containing peptides might act as competitive inhibitors. […] To establish that inhibition of AEP was specific, we measured the hydrolysis of different synthetic peptide substrates in the presence and absence of these tetrapeptides.

[2] = target: T1, disrupted lysosomes isolated from the human B cell line EDR (TTCF processing activity) (Homo sapiens, UniProt Q99538); assay: Digestion of TTCF by disrupted B cell lysosomes, SDS-PAGE readout; assay type: biochemical; conditions: data not shown; for effect on lysosomal TTCF digestion activity: concentration not given
T1 construct: disrupted lysosomes isolated from the human B cell line EDR; endogenous in cells; host or cells: human B cell line EDR, Percoll-gradient lysosomal fraction, disrupted
T1 sequence (Q99538 26-323 limits assumed): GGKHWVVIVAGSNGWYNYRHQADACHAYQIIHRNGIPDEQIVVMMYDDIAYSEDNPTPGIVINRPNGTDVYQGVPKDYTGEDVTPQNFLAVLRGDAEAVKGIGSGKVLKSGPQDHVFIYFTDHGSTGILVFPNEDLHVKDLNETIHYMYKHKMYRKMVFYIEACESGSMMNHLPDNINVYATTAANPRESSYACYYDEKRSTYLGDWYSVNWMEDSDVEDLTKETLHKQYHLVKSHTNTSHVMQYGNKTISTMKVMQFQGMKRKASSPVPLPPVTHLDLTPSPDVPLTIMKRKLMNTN
Procedure: The invention will now be described by reference to the following Examples and Figures wherein • Figure 1: Processing of TTCF by a leupeptin-insensitive cysteine endopeptidase activity. (a) TTCF was digested in vitro in the presence of disrupted lysosomes (1-2 µg) in the presence or absence of iodoacetamide (1 mM), leupeptin, E64 or pepstatin (each at 0.1 mg/ml). Digestions were in 0.1 M NH4 acetate at pH 4.5 or Na2HPO4, pH 6.0 or 7.0. After 4 hours at 37°C, the reactions were separated by Tris-tricine SDS-PAGE and stained with Coomassie Blue. (b) Cleavage sites: TTCF digestion products were separated by SDS PAGE and electrophoretically transferred to nitrocellulose membrane. Individual fragments numbered 1-6 were subjected to 5 cycles of Edman degradation. N-terminal sequence obtained is shown in bold following upstream residues from TTCF (tetanus toxin numbering). The N-terminal sequence of His-tagged TTCF was obtained for fragments 1 and 3. (c) Residues Asn 1184 and Glu 1184 in TTCF were mutated to alanine (see Methods) and digestions performed as before. The mutation abolishes cleavage at the mutated site but not at the first site (doublet at 47 kD). In this experiment cleavage of the third site was minimal. • Figure 2: TTCF is processed by an asparaginyl endopeptidase. (a) Chromatography of the TTCF processing activity on Mono-S resin. Fractions eluted by NaCl gradient were incubated with the substrates Z-Ala-Ala-Asn-NHMec or Z-Phe-Arg-NHMec in the presence or absence of E64 (trans-epoxysuccinyl-L-leucylamido-(4-guanidino)butane). […] (b) Fractions as above were incubated with 10 µg TTCF in the presence or absence of E64 for 4 hours at 37°C prior to SDS-PAGE analysis. (c) Each fraction was analysed by SDS-PAGE and Western blotting. Electrophoretically transferred material was probed with an affinity purified antiserum raised against the peptide KGIGSGKVLKSGPQC from human legumain^1. • Figure 3: Peptide inhibitors of AEP block asparaginyl endopeptidase activity and TTCF processing in vitro and in vivo. (a) TTCF was digested with purified AEP (legumain from pig kidney) in the presence or absence of 0.2 mg/ml of the peptides indicated. […] (b) Purified AEP or a crude lysosomal protease mixture were incubated with Z-Ala-Ala-Asn-NHMec, Z-Phe-Arg-NHMec (cathepsins L&B) or Z-Val-Val-Ala NHMec (cathepsin S) in the presence of increasing concentrations of AENK or AEQK. Release of 7-amino-4-methyl coumarin was measured after 10, 20 or 30 minutes. […] At different times the cells were washed, fixed in 0.05 % glutaraldehyde and co-cultured with autologous TTCF specific T cell clones. […] Proteins obtained from commercial sources, as described in the literature or custom peptides were digested with purified pig kidney legumain at pH 5.5 in the presence of 1 mM DTT. […] When present peptide was maintained during antigen pulsing at 1 mg/ml (a) or 2 mg/ml (b). At different times the cells were washed, fixed in 0.05 % glutaraldehyde and antigen presentation measured using proliferation of different autologous TTCF-specific T cell clones. c, AEP pre-processing of TTCF speeds antigen presentation. […] Presentation was measured after 60 minutes of antigen pulsing using EBV B cells.
[…]. […] Nor could we reproduce the lysosomal TTCF digestion pattern or indeed generate any of these fragments using purified cathepsins L, S, B, D or E , all of which have been implicated in the class II MHC antigen processing pathway (reviewed in refs 5 & 6).
TTCF processing activity. Lysosomal fractions from the human B cell line EDR were prepared on 27 % Percoll density gradients as previously described^8 using ^125I-labelled transferrin (internalised for 30 minutes at 37°C) and β-hexosaminidase to identify endosomal/plasma membrane and lysosomal fractions respectively. The peak of lysosomes was collected by centrifugation at 40,000 g for 1 hour, removed from the underlying Percoll pellet, collected again at 50,000 g for 1 hour and stored frozen. […]

SMILES	effect on lysosomal TTCF digestion activity [2]	also measured
NCCCC[C@H](NC(=O)OCC1c2ccccc2-c2ccccc21)C(=O)N[C@@H](CCC(N)=O)C(=O)N[C@@H](CCC(N)=O)C(=O)N[C@@H](CCC(=O)O)C(N)=O [KQQE] (Fmoc-KQQE-NH2)		inhibition of processing of TTCF by AEP [1]: did not inhibit
CC(C)C[C@H](NC(=O)N1CCOCC1)C(=O)N[C@H](/C=C/S(=O)(=O)c1ccccc1)CCc1ccccc1 [LHVS]	without effect	
CCN1C(=O)C=CC1=O [N-ethyl maleimide]	sensitive	
[N-]=[N+]=CC(=O)[C@H](Cc1ccccc1)NC(=O)[C@H](Cc1ccccc1)NC(=O)OCc1ccccc1 [Z-Phe-Phe-CHN2] (Cbz-Phe-Phe-CHN2)		sensitivity of lysosomal TTCF digestion activity to inhibitor ([2]; high concentrations): sensitive
